Patent US20150291598A1 (NOVARTIS AG, priority 2012, published 2015)

test system: P. falciparum (NF54 or 3D7 strain); test: Assay for P. falciparum proliferation in infected human blood cells (SYBR Green); type: cell-based, Plasmodium falciparum; settings: Plasmodium falciparum, Erythrocyte, 72 h, NF54 or 3D7 infected human erythrocytes, 72 hours; read-out: EC50 (nM), inhibitory efficacy in delaying P. falciparum proliferation in infected human blood cells
Experimental: Assay for P. falciparum Proliferation in Infected Human Blood Cells
Compounds of the invention can be assayed to measure their capacity to inhibit proliferation of P. falciparum parasitemia in infected red blood cells. This parasite proliferation assay measures the increase in parasite DNA content using a DNA intercalating dye, SYBR Green® (INVITROGEN®) which has a high affinity for double stranded DNA.
NF54 or 3D7 P. falciparum strain is grown in complete culturing media until parasitemia reaches 3% to 8% with O+ human erythrocytes. […] 20 μl of screening media is dispensed into 384 well assay plates. 50 nl of compounds of the invention (in DMSO), including antimalarial controls (mefloquine, pyrimethamine and artemisinin), are then transferred into the assay plates, as well as DMSO alone to serve as a negative control for inhibition. Then 30 μl of a suspension of a NF54 or 3D7 P. falciparum infected erythrocytes in screening media is dispensed into the assay plates such that the final hematocrit is 2.5% with a final parasitemia of 0.3%. The plates are placed in a 37° C. incubator for 72 hours in a low oxygen environment containing 93% N2, 4% CO2, and 3% O2 gas mixture. 10 μl of lysis buffer (saponin, triton-X, EDTA) containing a 10× solution of SYBR Green I® in RPMI media is dispensed into the plates. The plates are lidded and kept at room temperature overnight for the lysis of the infected red blood cells. The fluorescence intensity is measured (excitation […], emission 530 nm) using the Envision™ system (Perkin Elmer).

SMILES	EC50 [nM]
CN(C(=O)c1cn2c(-c3ccc(C(F)(F)F)cc3)cnc2cn1)c1ccc(N2CCOCC2)cn1 [Compound 321, N-methyl-N-[5-(morpholin-4-yl)pyridin-2-yl]-3-[4-(trifluoromethyl)phenyl]imidazo[1,2-a]pyrazine-6-carboxamide]	2260
NC(=O)C1CCCN(C(=O)c2cn3c(-c4ccc(C(F)(F)F)cc4)cnc3cn2)C1 (centres unmarked) [Compound 397, 1-({3-[4-(trifluoromethyl)phenyl]imidazo[1,2-a]pyrazin-6-yl}carbonyl)piperidine-3-carboxamide]	6550
CN(C(=O)c1cn2c(-c3ccc(C(F)(F)F)cc3)cnc2cn1)c1cnc(Br)cn1 [Compound 97, N-(5-bromopyrazin-2-yl)-N-methyl-3-[4-(trifluoromethyl)phenyl]imidazo[1,2-a]pyrazine-6-carboxamide]	4510
CN(C(=O)c1cn2c(-c3ccc(OCC(F)(F)F)cc3)cnc2cn1)c1ccc(C#N)cc1 [Compound 138, N-(4-cyanophenyl)-N-methyl-3-[4-(2,2,2-trifluoroethoxy)phenyl]imidazo[1,2-a]pyrazine-6-carboxamide]	849
CN(C(=O)c1cn2c(-c3ccc(C#N)nc3)cnc2cn1)c1ccc(C#N)cc1 [Compound 401, N-(4-cyanophenyl)-3-(6-cyanopyridin-3-yl)-N-methylimidazo[1,2-a]pyrazine-6-carboxamide]	> 10000
O=C(c1cn2c(-c3ccc(C(F)(F)F)cc3)cnc2cn1)N1CCS(=O)(=O)c2ccccc21 [Compound 494, (1,1-dioxido-2H-benzo[b][1,4]thiazin-4(3H)-yl)(3-(4-(trifluoromethyl)phenyl)imidazo[1,2-a]pyrazin-6-yl)methanone]	3350
CN(C(=O)c1cn2c(-c3ccc(C(F)(F)F)cc3)cnc2cn1)c1ccc(S(C)(=O)=O)cc1 [Compound 501, N-(4-methanesulfonylphenyl)-N-methyl-3-[4-(trifluoromethyl)phenyl]imidazo[1,2-a]pyrazine-6-carboxamide]	1450
CN(C(=O)c1cn2c(-c3ccc(-c4nnc(N)o4)cc3)cnc2cn1)c1ccc(F)cc1 [Compound 227, 3-[4-(5-amino-1,3,4-oxadiazol-2-yl)phenyl]-N-(4-fluorophenyl)-N-methylimidazo[1,2-a]pyrazine-6-carboxamide]	40
CC(C)c1nc(-c2cnc3cnc(C(=O)N(C)c4ccc(C#N)cc4)cn23)cs1 [Compound 156, N-(4-cyanophenyl)-N-methyl-3-[2-(propan-2-yl)-1,3-thiazol-4-yl]imidazo[1,2-a]pyrazine-6-carboxamide]	391
COc1cc(C#N)ccc1N(C)C(=O)c1cn2c(-c3ccc(C(F)(F)F)cc3)cnc2cn1 [Compound 503, N-(4-cyano-2-methoxyphenyl)-N-methyl-3-[4-(trifluoromethyl)phenyl]imidazo[1,2-a]pyrazine-6-carboxamide]	60
CN(C(=O)c1cn2c(-c3ccc4c(ccn4C)c3)cnc2cn1)c1ccc(Cl)cc1 [Compound 141, N-(4-chlorophenyl)-N-methyl-3-(1-methyl-1H-indol-5-yl)imidazo[1,2-a]pyrazine-6-carboxamide]	433
Cc1nnc(-c2ccc(-c3cnc4cnc(C(=O)N(C)c5ccc(C#N)cc5)cn34)cc2)o1 [Compound 163, N-(4-cyanophenyl)-N-methyl-3-[4-(5-methyl-1,3,4-oxadiazol-2-yl)phenyl]imidazo[1,2-a]pyrazine-6-carboxamide]	2630
CC1CCN(c2nc(-c3cnc4cnc(C(=O)N(C)c5ccc(C#N)cc5)cn34)cs2)CC1 [Compound 198, N-(4-cyanophenyl)-N-methyl-3-[2-(4-methylpiperidin-1-yl)-1,3-thiazol-4-yl]imidazo[1,2-a]pyrazine-6-carboxamide]	> 10000
CN(Cc1cn2c(-c3ccc(-c4nnc(N)s4)cc3)cnc2cn1)c1ccc(Cl)nc1 [Compound 28, -({3-[4-(5-amino-1,3,4-thiadiazol-2-yl)phenyl]imidazo[1,2-a]pyrazin-6-yl}methyl)-6-chloro-N-methylpyridin-3-amine]	13
CN(Cc1cn2c(-c3ccc(-c4ccn[nH]4)cc3)cnc2cn1)c1ccc(Cl)cc1 [Compound 5, N-((3-(4-(1H-pyrazol-5-yl)phenyl)imidazo[1,2-a]pyrazin-6-yl)methyl)-4-chloro-N-methylaniline]	238
CN(C(=O)c1cn2c(-c3ccc4c(ccn4C)c3)cnc2cn1)c1ccc(F)c(F)c1 [Compound 127, N-(3,4-difluorophenyl)-N-methyl-3-(1-methyl-1H-indol-5-yl)imidazo[1,2-a]pyrazine-6-carboxamide]	236
CN(C(=O)c1cn2c(-c3ccc(C(F)(F)F)cc3)cnc2cn1)c1ccc(C#N)cc1F [Compound 293, N-(4-cyano-2-fluorophenyl)-N-methyl-3-[4-(trifluoromethyl)phenyl]imidazo[1,2-a]pyrazine-6-carboxamide]	76
CN(C(=O)c1cn2c(-c3ccc(C(F)(F)F)cc3)cnc2cn1)c1ccccc1OC(F)F [Compound 346, N-[2-(difluoromethoxy)phenyl]-N-methyl-3-[4-(trifluoromethyl)phenyl]imidazo[1,2-a]pyrazine-6-carboxamide]	242
CN(C(=O)c1cn2c(-c3ccc(C(F)(F)F)cc3)cnc2cn1)c1nc2ccccc2s1 [Compound 14, N-(1,3-benzothiazol-2-yl)-N-methyl-3-[4-(trifluoromethyl)phenyl]imidazo[1,2-a]pyrazine-6-carboxamide]	9580
CC1(C)CN(C(=O)c2cn3c(-c4ccc(C(F)(F)F)cc4)cnc3cn2)c2ccc(C#N)cc2O1 [Compound 350, 2,2-dimethyl-4-({3-[4-(trifluoromethyl)phenyl]imidazo[1,2-a]pyrazin-6-yl}carbonyl)-3,4-dihydro-2H-1,4-benzoxazine-7-carbonitrile]	> 5630
CN(C(=O)c1cn2c(-c3ccc(CN)cc3)cnc2cn1)c1ccc(C#N)cc1 [Compound 186, 3-[4-(aminomethyl)phenyl]-N-(4-cyanophenyl)-N-methylimidazo[1,2-a]pyrazine-6-carboxamide]	9170
CN(C)CCOc1ccc(-c2cnc3cnc(C(=O)N(C)c4ccc(C#N)cc4)cn23)cc1 [Compound 284, N-(4-cyanophenyl)-3-{4-[2-(dimethylamino)ethoxy]phenyl}-N-methylimidazo[1,2-a]pyrazine-6-carboxamide]	947

Next, values leading:

EC50 [nM]	SMILES
9350	CN(C(=O)c1cn2c(-c3ccc(Cl)cn3)cnc2cn1)c1ccc(C#N)cc1 [Compound 196, 3-(5-chloropyridin-2-yl)-N-(4-cyanophenyl)-N-methylimidazo[1,2-a]pyrazine-6-carboxamide]
1140	CN(C(=O)c1cn2c(-c3ccc(C(F)(F)F)cc3)cnc2cn1)c1ccc(Br)nc1 [Compound 58, N-(6-bromopyridin-3-yl)-N-methyl-3-[4-(trifluoromethyl)phenyl]imidazo[1,2-a]pyrazine-6-carboxamide]
6780	CN(C(=O)c1cn2c(-c3ccc(C(=O)NC4CC4)cc3)cnc2cn1)c1ccc(Cl)nc1 [Compound 343, N-(6-chloropyridin-3-yl)-3-[4-(cyclopropylcarbamoyl)phenyl]-N-methylimidazo[1,2-a]pyrazine-6-carboxamide]
57	CN(C(=O)c1cn2c(-c3ccc(C(N)=O)cc3)cnc2cn1)c1ccc(C#N)cc1 [Compound 104, 3-(4-carbamoylphenyl)-N-(4-cyanophenyl)-N-methylimidazo[1,2-a]pyrazine-6-carboxamide]
1960	CN(C(=O)c1cn2c(-c3ccc(-n4cccn4)cc3)cnc2cn1)c1ccc(Cl)nc1 [Compound 330, N-(6-chloropyridin-3-yl)-N-methyl-3-[4-(1H-pyrazol-1-yl)phenyl]imidazo[1,2-a]pyrazine-6-carboxamide]
100	CN(C(=O)c1cn2c(-c3ccc(C(C)(F)F)cc3)cnc2cn1)c1ccc(Cl)nc1 [Compound 237, N-(6-chloropyridin-3-yl)-3-[4-(1,1-difluoroethyl)phenyl]-N-methylimidazo[1,2-a]pyrazine-6-carboxamide]
> 8970	CNc1ccc(-c2cnc3cnc(C(=O)N(C)c4ccc(Cl)nc4)cn23)cn1 [Compound 407, N-(6-chloropyridin-3-yl)-N-methyl-3-[6-(methylamino)pyridin-3-yl]imidazo[1,2-a]pyrazine-6-carboxamide]
266	CN(C)c1ccc(-c2cnc3cnc(C(=O)N(C)c4ccc(Cl)cc4)cn23)cc1 [Compound 122, N-(4-chlorophenyl)-3-[4-(dimethylamino)phenyl]-N-methylimidazo[1,2-a]pyrazine-6-carboxamide]
> 4570	CN(C(=O)c1cn2c(-c3ccc4c(c3)OCCO4)cnc2cn1)c1ccc(Cl)nc1 [Compound 360, N-(6-chloropyridin-3-yl)-3-(2,3-dihydro-1,4-benzodioxin-6-yl)-N-methylimidazo[1,2-a]pyrazine-6-carboxamide]
399	COC(=O)Nc1ccc(-c2cnc3cnc(C(=O)N(C)c4ccc(C#N)cc4)cn23)cn1 [Compound 260, methyl N-(5-{6-[(4-cyanophenyl)(methyl)carbamoyl]imidazo[1,2-a]pyrazin-3-yl}pyridin-2-yl)carbamate]
